Columns and labels:
Assay type in all cases: in vivo
Veronica persica = assay: Test Example 4: herbicidal effect by soil treatment (symbol R); conditions: application herbicide amount 320 g/ha
Method in brief: (§1)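 Seeds were sown in sterilized diluvial soil, covered with about 1.5 cm of soil, and the soil surface was sprayed with a water-diluted emulsion of the compound at a predetermined rate. Plants grew in a greenhouse at 25° C. to 30° C.; effects were scored visually 3 weeks after application.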

Chenopodium album = assay: Test Example 4: herbicidal effect by soil treatment (symbol O); conditions: application herbicide amount 320 g/ha
Method in brief: as §1

Galium spurium = assay: Test Example 4: herbicidal effect by soil treatment (symbol Q); conditions: application herbicide amount 320 g/ha
Method in brief: as §1

[1] = system: Echinochloa crus-galli var. crus-galli; assay: Test Example 5: herbicidal effect by foliage application, plastic box (symbol H); conditions: 320 g/ha, 3 weeks after application
Method in brief: (§2)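 Effect is rated 3 weeks after a foliar spray of water-diluted emulsion concentrate at a predetermined herbicide amount. Plants had grown 14 days in a 25° C. to 30° C. greenhouse from seed in sterilized diluvial soil.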

Scirpus juncoides = assay: Test Example 1: herbicidal activity, application before weed generation in submerged conditions (symbol B); conditions: application herbicide amount 320 g/ha
Method in brief: (§3)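 Flooded alluvial soil (4 cm water) was mixed-sown with the three weed species, and 2.5-leaf rice seedlings were transplanted. On sowing day, a water-diluted emulsion at a predetermined rate was applied to the water surface. After 3 weeks in a 25–30 °C greenhouse, effect was scored 0–5.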

Setaria viridis [2] = assay: Test Example 4: herbicidal effect by soil treatment (symbol G); conditions: application herbicide amount 320 g/ha
Method in brief: as §1

Alopecurus myosuroides = assay: Test Example 5: herbicidal effect by foliage application, plastic box (symbol J); conditions: 320 g/ha, 3 weeks after application
Method in brief: as §2

[3] = system: Echinochloa oryzacola Vasing.; assay: Test Example 1: herbicidal activity, application before weed generation in submerged conditions (symbol A); conditions: application herbicide amount 320 g/ha
Method in brief: as §3

Setaria viridis [4] = assay: Test Example 5: herbicidal effect by foliage application, plastic box (symbol G); conditions: 320 g/ha, 3 weeks after application
Method in brief: as §2

Amaranthus retroflexus = assay: Test Example 4: herbicidal effect by soil treatment (symbol N); conditions: application herbicide amount 320 g/ha
Method in brief: as §1

| Compound | R: Veronica persica, herbicidal effect grade (Veronica persica) | O: Chenopodium album, herbicidal effect grade (Chenopodium album) | Q: Galium spurium, herbicidal effect grade (Galium spurium) | H: Echinochloa crus-galli var. crus-galli, herbicidal effect (criteria of Test Example 1) [1] | Herbicidal effect grade, B: Scirpus juncoides (Scirpus juncoides) | G: Setaria viridis, herbicidal effect grade (Setaria viridis [2]) | J: Alopecurus myosuroides, herbicidal effect (criteria of Test Example 1) (Alopecurus myosuroides) | Herbicidal effect grade, A: Echinochloa oryzacola Vasing. [3] | G: Setaria viridis, herbicidal effect (criteria of Test Example 1) (Setaria viridis [4]) | N: Amaranthus retroflexus, herbicidal effect grade (Amaranthus retroflexus) |
| --- | --- | --- | --- | --- | --- | --- | --- | --- | --- | --- |
| CON=C(C)CC1CC(O)=C(c2c(C)cc(-n3cccn3)cc2C)C1=O (stereo not drawn) [6-073] | 0 (Herbicidal ratio of 5% or lower (almost no effect)) | 0 (Herbicidal ratio of 5% or lower (almost no effect)) | 0 (Herbicidal ratio of 5% or lower (almost no effect)) | 5 (Herbicidal ratio of 90% or more (almost completely withered)) | 1 (Herbicidal ratio of 5% or higher and lower than 20%) | 5 (Herbicidal ratio of 90% or more (almost completely withered)) | 5 (Herbicidal ratio of 90% or more (almost completely withered)) | 4 (Herbicidal ratio of 70% or higher and lower than 90%) | 5 (Herbicidal ratio of 90% or more (almost completely withered)) | 0 (Herbicidal ratio of 5% or lower (almost no effect)) |
| CON=C(C)CC1CC(OCOC(=O)c2ccccc2)=C(c2c(C)cc(-c3ccc(Cl)cc3)cc2C)C1=O (stereo not drawn) [6-083] | 3 (Herbicidal ratio of 40% or higher and lower than 70%) | 0 (Herbicidal ratio of 5% or lower (almost no effect)) | 0 (Herbicidal ratio of 5% or lower (almost no effect)) | 5 (Herbicidal ratio of 90% or more (almost completely withered)) | 4 (Herbicidal ratio of 70% or higher and lower than 90%) | 5 (Herbicidal ratio of 90% or more (almost completely withered)) | 5 (Herbicidal ratio of 90% or more (almost completely withered)) | 5 (Herbicidal ratio of 90% or more (almost completely withered)) | 5 (Herbicidal ratio of 90% or more (almost completely withered)) | 0 (Herbicidal ratio of 5% or lower (almost no effect)) |
| CON=C(C)CC1CC(OS(=O)(=O)N(C)C)=C(c2c(C)cc(-c3ccc(F)cc3)cc2C)C1=O (mixture of isomers) [6-060] | 2 (Herbicidal ratio of 20% or higher and lower than 40%) | 0 (Herbicidal ratio of 5% or lower (almost no effect)) | 0 (Herbicidal ratio of 5% or lower (almost no effect)) | 5 (Herbicidal ratio of 90% or more (almost completely withered)) | 5 (Herbicidal ratio of 90% or more (almost completely withered)) | 5 (Herbicidal ratio of 90% or more (almost completely withered)) | 5 (Herbicidal ratio of 90% or more (almost completely withered)) | 5 (Herbicidal ratio of 90% or more (almost completely withered)) | 4 (Herbicidal ratio of 70% or higher and lower than 90%) | 5 (Herbicidal ratio of 90% or more (almost completely withered)) |
